Results as given in ChEMBL document CHEMBL4483862, “Open-source discovery of chemical leads for next-generation chemoprotective antimalarials” (2018).

Tested on: Plasmodium berghei
Test: Luciferase/luciferin-expressing antifolate-resistant parasites were used to infect a culture of HepG2 cells that were pre-incubated with compounds. Infected hepatocytes emit light due to the luciferase reaction. Assay results are presented as the percent inhibition of light emission compared to control. […]
Format: functional
Settings: sporozoite; for IC90: read-out: LUCIFERASE INFECTION ASSAY - IC90
[1] = read-out: LUCIFERASE INFECTION ASSAY - IC50

SMILES: C=CCNC(=O)NCC(=O)c1cc(C)n(-c2ccc(C(C)C)cc2)c1C
- IC50 (HEPG2TOX_HILL_SLOPE 1.75, HEPG2TOX_R_SQUARED 0.807, PBLUC_HILL_SLOPE 19, PBLUC_R_SQUARED 0.54, read-out: LUCIFERASE INFECTION ASSAY - IC50): 3.26 µM
- IC90: 3.66 µM

SMILES: O=C(Nc1nc(-c2cccs2)cs1)c1c[nH]c(C(=O)N2CCCC2)c1
- IC50 [1]: > 10 µM
- IC90: > 10 µM

SMILES: Cn1c(-c2cc3c(s2)CCC(C(C)(C)C)C3)n[nH]c1=S (stereo not given)
- IC50 (HEPG2TOX_HILL_SLOPE 1.61, HEPG2TOX_R_SQUARED 0.989, PBLUC_HILL_SLOPE 2.28, PBLUC_R_SQUARED 0.71, read-out: LUCIFERASE INFECTION ASSAY - IC50): 2.9 µM
- IC90: 7.62 µM

SMILES: COC(=O)c1c(OC)ccc(NC(=O)NC(=O)c2c(OC)c(Cl)cc(Cl)c2OC)c1OC
- IC50 (HEPG2TOX_HILL_SLOPE 2.83, HEPG2TOX_R_SQUARED 0.683, PBLUC_HILL_SLOPE 11.5, PBLUC_R_SQUARED 0.299, read-out: LUCIFERASE INFECTION ASSAY - IC50): 2.18 µM
- IC90: 2.63 µM

SMILES: O=C(Nc1ccc(-c2nc3ccccc3[nH]2)cc1)c1cccc(N2CCCS2(=O)=O)c1
- IC50 (PBLUC_HILL_SLOPE 5.48, 3.67, PBLUC_R_SQUARED 0.355, 0.637, read-out: LUCIFERASE INFECTION ASSAY - IC50): 5.88 µM
- IC90: 9.62 µM

SMILES: COc1ccc(C(=O)NNC(=O)c2nn(-c3ccccc3)cc2O)c(OC)c1OC
- IC50 (HEPG2TOX_HILL_SLOPE 0.737, HEPG2TOX_R_SQUARED 0.981, PBLUC_HILL_SLOPE 4.06, PBLUC_R_SQUARED 0.568, read-out: LUCIFERASE INFECTION ASSAY - IC50): 1.61 µM
- IC90: 2.77 µM

SMILES: CN(C)C(CNc1cc(C(=O)NC2CC2)c2ccccc2n1)Cc1ccccc1 (stereo not given)
- IC50 [1]: > 10 µM
- IC90: > 10 µM

SMILES: CC(C)c1cc(N(c2ccc(Br)cc2)S(=O)(=O)c2ccc(Cl)cc2)cc(C(C)C)c1O
- IC50 (FFLUC_HILL_SLOPE 3.1, FFLUC_R_SQUARED 0.697, PBLUC_HILL_SLOPE 9.64, PBLUC_R_SQUARED 0.214, read-out: LUCIFERASE INFECTION ASSAY - IC50): 8.66 µM
- IC90: > 10 µM

SMILES: Oc1cc(C(F)(F)F)nc(-c2ccccn2)n1
- IC50 (HEPG2TOX_HILL_SLOPE 1.09, HEPG2TOX_R_SQUARED 0.904, PBLUC_HILL_SLOPE 3.05, PBLUC_R_SQUARED 0.293, read-out: LUCIFERASE INFECTION ASSAY - IC50): 8.2 µM
- IC90: 5.54 µM

SMILES: O=C(Nc1ccc(Cl)c(C(F)(F)F)c1)Nc1ccc2nc(-c3ccsc3)nn2c1
- IC50 (HEPG2TOX_HILL_SLOPE 8.17, HEPG2TOX_R_SQUARED 0.277, PBLUC_HILL_SLOPE 11.1, PBLUC_R_SQUARED 0.655, read-out: LUCIFERASE INFECTION ASSAY - IC50): 7.59 µM
- IC90: 9.25 µM

SMILES: Cc1c(-c2nc3ccccc3[nH]2)c(NC(=O)C(C)C)n(Cc2ccccc2)c1C
- IC50 (FFLUC_HILL_SLOPE 4.87, FFLUC_R_SQUARED 0.116, PBLUC_HILL_SLOPE 2.35, PBLUC_R_SQUARED 0.356, read-out: LUCIFERASE INFECTION ASSAY - IC50): 1.97 µM
- IC90: 5.02 µM

SMILES: Cc1c(C(=O)Nc2nonc2-c2ccc3c(c2)CCCC3)oc2ccccc12
- IC50 [1]: > 8.84 µM
- IC90: > 8.84 µM

SMILES: Cc1cc(C(=O)N/N=C/c2ccc(Sc3ncccn3)c([N+](=O)[O-])c2)c(C)n1-c1ccccc1
- IC50 [1]: > 10 µM
- IC90: > 10 µM

SMILES: CC(Sc1nc(N)c2ccsc2n1)c1nc(-c2ccccc2)no1 (stereo not given)
- IC50 (PBLUC_HILL_SLOPE 3.96, PBLUC_R_SQUARED 0.141, read-out: LUCIFERASE INFECTION ASSAY - IC50): > 10 µM
- IC90: > 10 µM

SMILES: CCN1C(=O)N(CCCc2cccnc2)C(=O)C12CCN(Cc1ccc3c(c1)Cc1ccccc1-3)CC2
- IC50 (HEPG2TOX_HILL_SLOPE 1.68, HEPG2TOX_R_SQUARED 0.934, PBLUC_HILL_SLOPE 11.7, PBLUC_R_SQUARED 0.742, read-out: LUCIFERASE INFECTION ASSAY - IC50): 2.14 µM
- IC90: 2.58 µM

SMILES: COC(=O)c1c(NC(=O)c2cccnc2)c2cc(NCc3ccco3)cnc2n1Cc1ccccc1
- IC50 (HEPG2TOX_HILL_SLOPE 11.5, HEPG2TOX_R_SQUARED 0.854, PBLUC_HILL_SLOPE 4.03, PBLUC_R_SQUARED 0.534, read-out: LUCIFERASE INFECTION ASSAY - IC50): 4.51 µM
- IC90: > 6.85 µM

SMILES: CSc1[nH]c(=O)c(C(=O)NCCc2c(C)cc(C(C)(C)C)cc2C)cc1C#N
- IC50 (PBLUC_HILL_SLOPE 3.23, PBLUC_R_SQUARED 0.351, read-out: LUCIFERASE INFECTION ASSAY - IC50): 3.69 µM
- IC90: 7.29 µM

SMILES: COc1cc2c(cc1NC(=O)C(C)N1CCC(C(N)=O)CC1)oc1ccccc12 (stereo not given)
- IC50 (PBLUC_HILL_SLOPE 1.06, PBLUC_R_SQUARED 0.647, read-out: LUCIFERASE INFECTION ASSAY - IC50): 1.32 µM
- IC90: > 10 µM

SMILES: CS(=O)(=O)c1ncc(Cl)c(C(=O)C(C#N)c2nc3ccccc3s2)n1 (stereo not given)
- IC50 [1]: 3.08 µM
- IC90: 3.59 µM

SMILES: CCCc1ccc(C(NC(=O)Cn2ccc(=O)[nH]c2=O)c2cccs2)cc1 (stereo not given)
- IC50 [1]: > 10 µM
- IC90: > 10 µM

SMILES: Cn1c(NCc2ccccc2F)nc2cnc(Nc3cccc(OC(F)(F)F)c3)cc21
- IC50 [1]: > 10 µM
- IC90: > 10 µM

SMILES: CCCN1CCc2nc(NCc3cccc(Oc4ccccc4)c3)ncc2C1
- IC50 (PBLUC_HILL_SLOPE 1.46, PBLUC_R_SQUARED 0.3, read-out: LUCIFERASE INFECTION ASSAY - IC50): 3.92 µM
- IC90: > 8.81 µM

SMILES: Cn1c(CNC(=O)c2ccc(Cl)cc2)nc2ccccc21
- IC50 [1]: > 11 µM
- IC90: > 11 µM

SMILES: COc1ccc(NC(=O)C2C(=S)NC(=N)C(C#N)C2c2ccc(Cl)cc2)cc1 (stereo not given)
- IC50 [1]: > 10 µM
- IC90: > 10 µM

SMILES: Clc1cccc(Sc2ccc(-c3ccccn3)s2)c1
- IC50 [1]: > 10.9 µM
- IC90: > 10.9 µM

SMILES: CC(OC(=O)c1ccc(C(C)C)cc1)C(=O)Nc1sccc1C(N)=O (stereo not given)
- IC50 [1]: > 10 µM
- IC90: > 10 µM

SMILES: COCCCn1c(SCC(=O)NC(=O)Nc2ccccc2)n[nH]c1=O
- IC50 [1]: > 10 µM
- IC90: > 10 µM

SMILES: Cn1nc(-c2ccccc2)c(-c2nc3ccccc3n2C)c1-c1ccccc1
- IC50 (HEPG2TOX_HILL_SLOPE 2.41, HEPG2TOX_R_SQUARED 0.613, PBLUC_HILL_SLOPE 4.44, PBLUC_R_SQUARED 0.302, read-out: LUCIFERASE INFECTION ASSAY - IC50): 5.47 µM
- IC90: 8.97 µM

SMILES: O=C1/C(=C/c2ccccc2Cl)CCC/C1=C\c1ccccc1Cl
- IC50 [1]: > 9.61 µM
- IC90: > 9.61 µM

SMILES: O=C(CSc1ccccc1)Nc1nc2ccccn2c1C(=O)NC1CCCCC1
- IC50 (HEPG2TOX_HILL_SLOPE 2.44, HEPG2TOX_R_SQUARED 0.782, PBLUC_HILL_SLOPE 1.51, PBLUC_R_SQUARED 0.873, read-out: LUCIFERASE INFECTION ASSAY - IC50): 2.83 µM
- IC90: > 8.08 µM

SMILES: COc1cc(-c2cc3[nH]c4ccccc4n3c(=O)c2Sc2ccc([N+](=O)[O-])cc2)cc(OC)c1OC
- IC50 (PBLUC_HILL_SLOPE 1.34, PBLUC_R_SQUARED 0.513, read-out: LUCIFERASE INFECTION ASSAY - IC50): 1.78 µM
- IC90: 9.18 µM

SMILES: CC(=O)Nc1ccc(-c2cnc3ccc(-c4ccc(S(C)(=O)=O)cc4)nn23)cc1
- IC50 (HEPG2TOX_HILL_SLOPE 6.82, HEPG2TOX_R_SQUARED 0.682, PBLUC_HILL_SLOPE 2.96, PBLUC_R_SQUARED 0.544, read-out: LUCIFERASE INFECTION ASSAY - IC50): 3.75 µM
- IC90: 7.89 µM

SMILES: CCOc1cccc(-c2cn3c(-c4cccc(O)c4)cnc3cn2)c1
- IC50 (HEPG2TOX_HILL_SLOPE 1.42, HEPG2TOX_R_SQUARED 0.867, PBLUC_HILL_SLOPE 1.9, PBLUC_R_SQUARED 0.651, read-out: LUCIFERASE INFECTION ASSAY - IC50): 3.05 µM
- IC90: 9.74 µM

SMILES: CS(=O)(=O)N1CCc2cc(C(=O)CSc3nc(-c4cccs4)nc4ccccc34)ccc21
- IC50 [1]: > 10 µM
- IC90: > 10 µM

SMILES: Cc1ccc(-n2nnnc2SCc2nc(-c3ccc(C)c(F)c3)no2)c(C)c1
- IC50 [1]: > 10 µM
- IC90: > 10 µM

SMILES: N#Cc1c(-c2ccccc2)c(-c2ccccc2)n(C2CCCCC2)c1NC(=O)CCN1C(=O)c2ccccc2C1=O
- IC50 (FFLUC_HILL_SLOPE 12.4, FFLUC_R_SQUARED 0.654, read-out: LUCIFERASE INFECTION ASSAY - IC50): > 10 µM
- IC90: > 10 µM

SMILES: COc1cc2nc(-c3ccccc3)nc(N3CCN(c4ccncc4)CC3)c2cc1OC
- IC50 [1]: > 10 µM
- IC90: > 10 µM

SMILES: CCN(CC)S(=O)(=O)c1ccc(O)c(NC(=O)c2ccc(SC(F)(F)F)cc2)c1
- IC50 [1]: > 10 µM
- IC90: > 10 µM

SMILES: C(#Cc1ccc(-c2cc[nH]n2)s1)c1ccccc1
- IC50 (PBLUC_HILL_SLOPE 0.121, PBLUC_R_SQUARED 0.262, read-out: LUCIFERASE INFECTION ASSAY - IC50): 0.0465 µM
- IC90: > 13.2 µM

SMILES: CCCCNC(=O)c1c(NC(=O)c2cccc(OC)c2)nc2ccc(C)cn12
- IC50 [1]: 2.79 µM
- IC90: 3.2 µM

SMILES: CC(C)(C)CN=C(C#N)C(C#N)/N=C/c1cccc(Cl)c1 (stereo not given)
- IC50 [1]: > 11 µM
- IC90: > 11 µM

SMILES: Cc1cc(C(=O)COc2ccc(CC(=O)O)cc2)c(C)n1CCC(C)C
- IC50 (PBLUC_HILL_SLOPE 4.94, 3.04, PBLUC_R_SQUARED 0.440, 0.373, read-out: LUCIFERASE INFECTION ASSAY - IC50): 5.4 µM
- IC90: 7.13 µM

SMILES: CCOCCC(=O)Nc1ccc2c(c1)c(=O)n(C)n2Cc1cccc(C(F)(F)F)c1
- IC50 [1]: > 7.83 µM
- IC90: > 7.83 µM

SMILES: CCOC(=O)NC(=O)/C(C#N)=N/Nc1ccccc1
- IC50 (PBLUC_HILL_SLOPE 2.22, PBLUC_R_SQUARED 0.599, read-out: LUCIFERASE INFECTION ASSAY - IC50): 0.207 µM
- IC90: 0.557 µM

SMILES: C/C(=N\NC(=N)N)c1ccc(C2CCCCC2)cc1
- IC50 (HEPG2TOX_HILL_SLOPE 4.72, HEPG2TOX_R_SQUARED 0.94, read-out: LUCIFERASE INFECTION ASSAY - IC50): > 10 µM
- IC90: > 10 µM
